Assay results reported in patent US9751887B2, “Imidazo[1,2-b]pyridazine derivatives as kinase inhibitors” (Daiichi Sankyo Company, Limited, priority 2012, dated 2017).
Read-outs that look alike come from different tables or passages of the source.

Key:
ROS1 [1] = biological target: T1, ROS1 (Homo sapiens, UniProt P08922); assay: ROS1 kinase inhibitory activity evaluation (mobility shift, EZ Reader II); format: biochemical; settings: ROS1 25 pg/μL, FL-Peptide 22 substrate, three separate measurements
T1 construct: purchased Carna Biosciences 08-163
Procedure: Next, a substrate reaction solution was prepared. […] Then, the reaction stop solution was added thereto at a concentration of 40 μL/well. Substrate phosphorylation intensity was measured using EZ Reader II (Caliper Life Sciences).

[2] = tested on: HCC78 cells having ROS1 fusion gene; assay: HCC78 cell growth assay (CellTiter-Glo); format: cell-based; settings: Homo sapiens, 72 hours culture, 2% FBS medium, luminescence, four separate measurements, read-out: growth inhibitory effect on HCC78 cells having ROS1 fusion gene IC50
Procedure: Each compound of the present invention was assayed for its cell growth inhibitory effect using HCC78 cells having ROS1 fusion gene.
The suspension was dispensed at a concentration of 100 μL/well to a 96-well culture plate for cell culture (SUMITOMO BAKELITE, Cat No MS-0096S) (hereinafter, referred to as an assay plate). […] In this context, the final concentration of DMSO was set to 0.4%. Then, the cells were cultured for 72 hours in a CO2 incubator.
CellTiter-Glo Luminescent Cell Viability Assay reagent (Promega, Cat No G7571) was dispensed at a concentration of 100 μL/well to the assay plate. The contents in each well were reacted at room temperature for 10 minutes while stirred using a plate mixer. […] The luminescence intensity of each well was measured using EnVision. The luminescence intensity of each well obtained in four separate measurements was defined as the number of cells. IC50 values were calculated by curve fitting using GraphPad Prism version 4.

ROS1 [3] = biological target: T1, ROS1; assay: ROS1 autophosphorylation inhibitory activity evaluation (ADP-Glo); format: biochemical; settings: 200 nM inactive ROS1, ATP 1 mM, 25° C. 1.5 hours, ADP generated, four separate measurements
Procedure: Fifty mM HEPES (pH 7.5), 10 mM MgCl2, 0.01% Brij-58, and 2.5 mM DTT were mixed to prepare an enzymatic reaction solution. […] ATP (final concentration: 1 mM) was further added thereto at a concentration of 2.5 μL/well. The resulting plate was left standing at 25° C. for 1.5 hours to cause enzymatic reaction. After the completion of enzymatic reaction, ADP-Glo Reagent-1 (Promega, V9103) was added thereto at a concentration of 2.5 μL/well, and the plate was left standing at room temperature for 60 minutes. Then, ADP-Glo Reagent-2 (Promega) was added thereto at a concentration of 5 μL/well, and the plate was left standing at room temperature for 60 minutes. The amount of ADP generated by the autophosphorylation of ROS1 was measured using EnVision (PerkinElmer Japan). The amount of ADP generated in four separate measurements was defined as the autophosphorylation intensity of ROS1. IC50 values were calculated by curve fitting using GraphPad Prism version 4 (GraphPad software).

T1 sequence (P08922 28-2347): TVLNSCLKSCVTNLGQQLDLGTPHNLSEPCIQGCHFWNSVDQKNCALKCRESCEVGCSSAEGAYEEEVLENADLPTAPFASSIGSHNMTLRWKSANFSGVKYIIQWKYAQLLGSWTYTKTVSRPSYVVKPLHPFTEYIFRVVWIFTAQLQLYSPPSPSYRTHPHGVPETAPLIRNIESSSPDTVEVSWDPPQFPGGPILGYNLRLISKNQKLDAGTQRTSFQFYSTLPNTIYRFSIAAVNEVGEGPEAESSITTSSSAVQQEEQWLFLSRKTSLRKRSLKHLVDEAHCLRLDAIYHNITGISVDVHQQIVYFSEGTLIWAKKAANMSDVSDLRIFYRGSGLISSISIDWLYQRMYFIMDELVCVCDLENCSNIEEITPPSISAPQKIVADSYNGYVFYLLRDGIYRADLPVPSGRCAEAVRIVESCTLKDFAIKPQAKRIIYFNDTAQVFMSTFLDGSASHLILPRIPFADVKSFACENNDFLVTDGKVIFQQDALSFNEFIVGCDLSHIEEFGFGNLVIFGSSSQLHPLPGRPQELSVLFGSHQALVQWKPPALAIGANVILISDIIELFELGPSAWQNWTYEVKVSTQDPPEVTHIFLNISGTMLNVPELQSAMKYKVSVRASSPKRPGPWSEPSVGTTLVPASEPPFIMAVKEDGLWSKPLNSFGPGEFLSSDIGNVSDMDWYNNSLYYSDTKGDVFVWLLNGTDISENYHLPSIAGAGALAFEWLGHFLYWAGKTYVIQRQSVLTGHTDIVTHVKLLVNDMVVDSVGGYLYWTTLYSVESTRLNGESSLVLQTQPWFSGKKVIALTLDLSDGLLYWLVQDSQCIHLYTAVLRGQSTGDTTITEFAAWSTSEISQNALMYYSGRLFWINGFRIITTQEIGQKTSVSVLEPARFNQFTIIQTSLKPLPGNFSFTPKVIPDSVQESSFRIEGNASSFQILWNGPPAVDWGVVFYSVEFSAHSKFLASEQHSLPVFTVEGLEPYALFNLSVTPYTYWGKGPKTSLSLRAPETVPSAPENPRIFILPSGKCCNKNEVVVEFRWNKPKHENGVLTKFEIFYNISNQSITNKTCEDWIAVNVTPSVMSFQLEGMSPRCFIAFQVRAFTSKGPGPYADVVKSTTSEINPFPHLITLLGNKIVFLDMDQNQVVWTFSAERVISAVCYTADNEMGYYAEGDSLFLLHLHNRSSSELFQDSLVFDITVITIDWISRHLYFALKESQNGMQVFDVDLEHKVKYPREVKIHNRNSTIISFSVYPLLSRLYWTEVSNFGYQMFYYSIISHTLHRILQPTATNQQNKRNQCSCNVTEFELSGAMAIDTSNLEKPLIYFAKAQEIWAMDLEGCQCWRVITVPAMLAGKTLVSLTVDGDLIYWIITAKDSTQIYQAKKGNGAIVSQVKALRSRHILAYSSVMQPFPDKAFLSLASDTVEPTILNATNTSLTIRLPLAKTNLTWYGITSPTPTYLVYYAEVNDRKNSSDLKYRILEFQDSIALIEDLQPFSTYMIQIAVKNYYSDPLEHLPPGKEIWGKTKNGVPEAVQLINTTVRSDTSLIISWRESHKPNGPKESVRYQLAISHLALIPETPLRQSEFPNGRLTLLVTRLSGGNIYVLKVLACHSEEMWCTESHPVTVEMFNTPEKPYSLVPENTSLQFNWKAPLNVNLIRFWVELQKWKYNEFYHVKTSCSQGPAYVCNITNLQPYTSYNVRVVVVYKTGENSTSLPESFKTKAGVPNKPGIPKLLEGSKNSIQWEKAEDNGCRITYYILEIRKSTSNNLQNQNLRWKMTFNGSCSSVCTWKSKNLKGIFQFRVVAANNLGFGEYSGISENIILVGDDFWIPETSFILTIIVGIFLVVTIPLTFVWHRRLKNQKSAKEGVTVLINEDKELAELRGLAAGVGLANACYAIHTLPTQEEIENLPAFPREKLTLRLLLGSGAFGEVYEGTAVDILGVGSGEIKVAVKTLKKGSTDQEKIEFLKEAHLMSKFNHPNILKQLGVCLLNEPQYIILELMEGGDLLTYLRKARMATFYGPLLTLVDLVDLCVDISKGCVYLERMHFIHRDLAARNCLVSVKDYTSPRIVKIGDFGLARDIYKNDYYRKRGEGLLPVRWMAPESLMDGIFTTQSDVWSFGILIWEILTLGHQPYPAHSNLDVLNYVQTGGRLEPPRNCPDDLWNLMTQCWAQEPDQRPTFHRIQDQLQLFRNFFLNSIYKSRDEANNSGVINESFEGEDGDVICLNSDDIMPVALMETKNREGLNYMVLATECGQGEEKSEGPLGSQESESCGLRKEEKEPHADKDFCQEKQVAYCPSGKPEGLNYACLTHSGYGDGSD

For `C[C@@H](Nc1ccc2ncc(-c3cccc(OC[C@@H]4CCCN4)c3)n2n1)c1cccc(F)c1` [Example 50, N-[(1R)-1-(3-Fluorophenyl)ethyl]-3-[3-[[(2S)-pyrrolidin-2-yl]methoxy]phenyl]imidazo[1,2-b]pyridazin-6-amine], the IC50 (ROS1 [1]) was < 1 nM, the IC50 ([2]; HCC78, 72 h) was 20 to 100 nM and the IC50 (ROS1 [3]) was < 20 nM.

`CN(Cc1cc(F)ccc1F)c1ccc2ncc(-c3ccc(N4C[C@@H](N)CC4=O)cc3)n2n1` [Example 97, (4S)-4-Amino-1-[4-[6-[(2,5-difluorophenyl)methyl-methylamino]imidazo[1,2-b]pyridazin-3-yl]phenyl]pyrrolidin-2-one] was tested, and the IC50 (ROS1 [1]) was 1 to 10 nM, the IC50 ([2]; HCC78, 72 h) was < 20 nM and the IC50 (ROS1 [3]) was 20 to 100 nM.

With `c1ccc(CNc2ccc3ncc(-c4ccc(O[C@@H]5CCNC5)cc4)n3n2)cc1` [Example 3, N-Benzyl-3-[4-[(3R)-pyrrolidin-3-yl]oxyphenyl]imidazo[1,2-b]pyridazin-6-amine] the IC50 (ROS1 [1]) was 1 to 10 nM, the IC50 ([2]; HCC78, 72 h) was 20 to 100 nM and the IC50 (ROS1 [3]) was 20 to 100 nM.

In the case of `CC(Oc1ccc2ncc(-c3ccc(N4C[C@@H](N)CC4=O)cc3)n2n1)c1cncc(F)c1` (stereo partly drawn) [Example 107], the IC50 (ROS1 [1]) is reported as < 1 nM, the IC50 ([2]; HCC78, 72 h) is reported as < 20 nM and the IC50 (ROS1 [3]) is reported as < 20 nM.

In the case of `CN(Cc1cncc(F)c1)c1ccc2ncc(-c3ccc(N4CC(C)(N)CC4=O)cc3)n2n1` (stereo not drawn) [Example 119, 4-Amino-1-[4-[6-[(5-fluoro-3-pyridyl)methyl-methylamino]imidazo[1,2-b]pyridazin-3-yl]phenyl]-4-methylpyrrolidin-2-one], the IC50 (ROS1 [1]) is reported as 1 to 10 nM, the IC50 ([2]; HCC78, 72 h) is reported as < 20 nM and the IC50 (ROS1 [3]) is reported as < 20 nM.

Molecule `CN(Cc1cccc(F)c1)c1ccc2ncc(-c3ccc(N4CC(C)(N)CC4=O)cc3)n2n1` (single isomer, unassigned) [Example 87, 4-Amino-1-[4-[6-[(3-fluorophenyl)methyl-methylamino]imidazo[1,2-b]pyridazin-3-yl]phenyl]-4-methylpyrrolidin-2-one] has an IC50 (ROS1 [1]) of 1 to 10 nM, an IC50 ([2]; HCC78, 72 h) of 20 to 100 nM and an IC50 (ROS1 [3]) of 20 to 100 nM.

`NC1CCN(c2ccc(-c3cnc4ccc(OCc5cccc(F)c5)nn34)cc2)C1=O` (stereo not drawn) [Example 75, 3-Amino-1-[4-[6-[(3-fluorophenyl)methoxy]imidazo[1,2-b]pyridazin-3-yl]phenyl]pyrrolidin-2-one] gave an IC50 (ROS1 [1]) of 1 to 10 nM, an IC50 ([2]; HCC78, 72 h) of 100 to 600 nM and an IC50 (ROS1 [3]) of 20 to 100 nM.

For `C[C@@H](Nc1ccc2ncc(-c3ccc(OCC4(N)CC4)cc3)n2n1)c1cccc(F)c1` [Example 39, 3-[4-[(1-Aminocyclopropyl)methoxy]phenyl]-N-[(1R)-1-(3-fluorophenyl)ethyl]imidazo[1,2-b]pyridazin-6-amine], the IC50 (ROS1 [1]) was < 1 nM, the IC50 ([2]; HCC78, 72 h) was 20 to 100 nM and the IC50 (ROS1 [3]) was < 20 nM.

For `C[C@@H](Nc1ccc2ncc(-c3ccc(OC4CNC4)cc3)n2n1)c1cccc(F)c1` [Example 25, 3-[4-(Azetidin-3-yloxy)phenyl]-N-[(1R)-1-(3-fluorophenyl)ethyl]imidazo[1,2-b]pyridazin-6-amine], the IC50 (ROS1 [1]) was 1 to 10 nM, the IC50 ([2]; HCC78, 72 h) was 20 to 100 nM and the IC50 (ROS1 [3]) was < 20 nM.

For `CN(Cc1cncc(F)c1)c1ccc2ncc(-c3ccc(N4CC(C)(N)CC4=O)cc3)n2n1` (single isomer, unassigned) [Example 124, 4-Amino-1-[4-[6-[(5-fluoro-3-pyridyl)methyl-methylamino]imidazo[1,2-b]pyridazin-3-yl]phenyl]-4-methylpyrrolidin-2-one], the IC50 (ROS1 [1]) was 1 to 10 nM, the IC50 ([2]; HCC78, 72 h) was < 20 nM and the IC50 (ROS1 [3]) was < 20 nM.

For `CN(Cc1cccc(C#N)c1)c1ccc2ncc(-c3ccc(N4C[C@@H](N)CC4=O)cc3)n2n1` [Example 121, 3-[[[3-[4-[(4S)-4-Amino-2-oxopyrrolidin-1-yl]phenyl]imidazo[1,2-b]pyridazin-6-yl]-methylamino]methyl]benzonitrile], the IC50 (ROS1 [1]) was 1 to 10 nM, the IC50 ([2]; HCC78, 72 h) was 20 to 100 nM and the IC50 (ROS1 [3]) was 20 to 100 nM.

For `CN(Cc1cccc(F)c1F)c1ccc2ncc(-c3ccc(N4C[C@@H](N)CC4=O)cc3)n2n1` [Example 98, (4S)-4-Amino-1-[4-[6-[(2,3-difluorophenyl)methyl-methylamino]imidazo[1,2-b]pyridazin-3-yl]phenyl]pyrrolidin-2-one], the IC50 (ROS1 [1]) was 1 to 10 nM, the IC50 ([2]; HCC78, 72 h) was 20 to 100 nM and the IC50 (ROS1 [3]) was < 20 nM.

For `OCCN1CCC[C@H]1COc1cccc(-c2cnc3ccc(NCc4ccccc4)nn23)c1` [Example 7, 2-[(2S)-2-[[3-[6-(Benzylamino)imidazo[1,2-b]pyridazin-3-yl]phenoxy]methyl]pyrrolidin-1-yl]ethanol], the IC50 (ROS1 [1]) was 1 to 10 nM, the IC50 ([2]; HCC78, 72 h) was 20 to 100 nM and the IC50 (ROS1 [3]) was 100 to 150 nM.

For `CN(Cc1cccc(F)c1)c1ccc2ncc(-c3ccc(N4CC(N)CC4=O)cc3)n2n1` (stereo not drawn) [Example 82, 4-Amino-1-[4-[6-[(3-fluorophenyl)methyl-methylamino]imidazo[1,2-b]pyridazin-3-yl]phenyl]pyrrolidin-2-one], the IC50 (ROS1 [1]) was < 1 nM, the IC50 ([2]; HCC78, 72 h) was 20 to 100 nM and the IC50 (ROS1 [3]) was < 20 nM.

For `Cc1ccc(F)cc1COc1ccc2ncc(-c3ccc(N4C[C@@H](N)CC4=O)cc3)n2n1` [Example 103, (4S)-4-Amino-1-[4-[6-[(5-fluoro-2-methylphenyl)methoxy]imidazo[1,2-b]pyriazin-3-yl]phenyl]pyrrolidin-2-one], the IC50 (ROS1 [1]) was 1 to 10 nM, the IC50 ([2]; HCC78, 72 h) was 20 to 100 nM and the IC50 (ROS1 [3]) was 20 to 100 nM.

`CN(Cc1cccnc1)c1ccc2ncc(-c3ccc(N4C[C@@H](N)CC4=O)cc3)n2n1` [Example 117, (4S)-4-Amino-1-[4-[6-[methyl(3-pyridylmethyl)amino]imidazo[1,2-b]pyridazin-3-yl]phenyl]pyrrolidin-2-one] showed an IC50 (ROS1 [1]) of 1 to 10 nM, an IC50 ([2]; HCC78) of 20 to 100 nM and an IC50 (ROS1 [3]) of 20 to 100 nM.

With `CN(Cc1cc(F)cc(F)c1)c1ccc2ncc(-c3ccc(N4C[C@@H](N)CC4=O)cc3)n2n1` [Example 120, (4S)-4-Amino-1-[4-[6-[(3,5-difluorophenyl)methyl-methylamino]imidazo[1,2-b]pyridazin-3-yl]phenyl]pyrrolidin-2-one] the IC50 (ROS1 [1]) was < 1 nM, the IC50 ([2]; HCC78, 72 h) was < 20 nM and the IC50 (ROS1 [3]) was < 20 nM.

Molecule `CC(Oc1ccc2ncc(-c3ccc(N4C[C@@H](N)CC4=O)cc3)n2n1)c1cn(C(F)F)nn1` (stereo partly drawn) [Example 115, (4S)-4-Amino-1-[4-[6-[1-[1-(difluoromethyl)triazol-4-yl]ethoxy]imidazo[1,2-b]pyridazin-3-yl]phenyl]pyrrolidin-2-one] has an IC50 (ROS1 [1]) of 10 to 60 nM, an IC50 ([2]; HCC78, 72 h) of 100 to 600 nM and an IC50 (ROS1 [3]) of 100 to 150 nM.

Molecule `C[C@@H](Nc1ccc2ncc(-c3cccc(OC[C@@H]4CCN4)c3)n2n1)c1cccc(F)c1` [Example 57, 3-[3-[[(2S)-Azetidin-2-yl]methoxy]phenyl]-N-[(1R)-1-(3-fluorophenyl)ethyl]imidazo[1,2-b]pyridazin-6-amine] has an IC50 (ROS1 [1]) of 1 to 10 nM, an IC50 ([2]; HCC78, 72 h) of 20 to 100 nM and an IC50 (ROS1 [3]) of 20 to 100 nM.

`CNCCCOc1cccc(-c2cnc3ccc(N[C@H](C)c4cccc(F)c4)nn23)c1` [Example 66, N-[(1R)-1-(3-Fluorophenyl)ethyl]-3-[3-[3-(methylamino)propoxy]phenyl]imidazo[1,2-b]pyridazin-6-amine] was tested, and the IC50 (ROS1 [1]) was 1 to 10 nM, the IC50 ([2]; HCC78, 72 h) was 20 to 100 nM and the IC50 (ROS1 [3]) was < 20 nM.

In the case of `Fc1cccc(COc2ccc3ncc(-c4ccc(OC[C@H]5CCCN5)cc4)n3n2)c1` [Example 11, 6-[(3-Fluorophenyl)methoxy]-3-[4-[[(2R)-pyrrolidin-2-yl]methoxy]phenyl]imidazo[1,2-b]pyridazine], the IC50 (ROS1 [1]) is reported as 1 to 10 nM, the IC50 ([2]; HCC78, 72 h) is reported as 100 to 600 nM and the IC50 (ROS1 [3]) is reported as 20 to 100 nM.

`CN(Cc1cncc(F)c1)c1ccc2ncc(-c3ccc(N4C[C@@H](N)CC4=O)c(C#N)c3)n2n1` [Example 130] showed an IC50 (ROS1 [1]) of 10 to 60 nM, an IC50 ([2]; HCC78, 72 h) of 100 to 600 nM and an IC50 (ROS1 [3]) of 20 to 100 nM.

In the case of `CC(Oc1ccc2ncc(-c3ccc(N4C[C@@H](N)CC4=O)cc3)n2n1)c1cc(Cl)n(C)n1` (stereo partly drawn) [Example 113, (4S)-4-Amino-1-[4-[6-[1-(5-chloro-1-methylpyrazol-3-yl)ethoxy]imidazo[1,2-b]pyridazin-3-yl]phenyl]pyrrolidin-2-one], the IC50 (ROS1 [1]) is reported as 1 to 10 nM, the IC50 ([2]; HCC78, 72 h) is reported as < 20 nM and the IC50 (ROS1 [3]) is reported as < 20 nM.

With `C[C@@H](Nc1ccc2ncc(-c3ccc(SC[C@@H]4CCCN4)cc3)n2n1)c1ccccc1` [Example 20, N-[(1R)-1-Phenylethyl]-3-[4-[[(2S)-pyrrolidin-2-yl]methylsulfanyl]phenyl]imidazo[1,2-b]pyridazin-6-amine] the IC50 (ROS1 [1]) was 1 to 10 nM, the IC50 ([2]; HCC78, 72 h) was 100 to 600 nM and the IC50 (ROS1 [3]) was 20 to 100 nM.
